Earlier results in patent US20230110485A1, “MULTI-LAYER PARTICLES OF FUNCTIONAL INGREDIENTS AND METHODS OF MAKING THE SAME” (Nulixir Inc., priority 2021, published 2023).

Tests used:
[1] = water and n-octanol; categorization at pH = 7 unless stated otherwise
[2] = test system: many strains of fungi

| Compound | logP [1] | inhibitory activity against fungi [2] |
| --- | --- | --- |
| COc1cc2c(c(OC)c1OC)-c1c(cc3c(c1OC)OCO3)CC(C)C(C)C2 (single isomer, unassigned; (-)) [(-)-schisandrin B] | ~4 | – |
| (-)-schisandrin C | ~3.5 | – |
| COc1cc(/C=C/c2ccccc2)oc(=O)c1 [5,6-dehydrokawain] | ~2.9 | – |
| COc1cc2c(c(OC)c1OC)-c1c(cc(OC)c(OC)c1OC)C[C@](C)(O)[C@@H](C)C2 [schisandrol A] | ~3.4 | – |
| O=CC=Cc1ccccc1 [Cinnamaldehyde] | – | strong inhibitory activity |
